Consider 1 compound from US6046219A, “Method for the treatment of conditions mediated by collagen formation together with cell proliferation by application of inhibitors of protein hydroxylation” (Cornell Research Foundation, Inc., priority 1997, dated 2000).

Entries after “also recorded” stand apart in the source; their conditions may differ.

Data set [1] concerns the target T1, purified human prolyl 4-hydroxylase (Homo sapiens, UniProt P13674).
T1 construct: made in house; host or cells: Spodoptera frugiperda insect cells (baculovirus, co-expression of α- and β-subunits)
Nature of the data set: Assay of purified human prolyl 4-hydroxylase (14CO2 release from 2-oxoglutarate, cell-free). Format: biochemical. As for the experimental part: The effect on the enzyme was determined in a cell-free system by measuring the oxidative decarboxylation of its cofactor 2-oxoglutarate via release of radiolabeled carbon dioxide in a standard reaction mixture also containing ascorbate, ferrous sulfate, and unhydroxylated peptide substrate.
The inhibitory action of the substances according to the invention, for example on collagen secretion or cell proliferation, can be tested in direct assays of the enzymes mediating the pivotal protein hydroxylations for these biological processes, such as prolyl 4-hydroxylase and deoxyhypusyl hydroxylase. This entails the enzymatic hydroxylation of the appropriate protein precursor, either by the cellular or the purified enzyme, in the presence or absence of compounds of Formulae (I) or (II), with concomitant determination of co-substrate utilization by these enzymes or subsequent isolation of the hydroxylated amino acid and its unhydroxylated precursor. In this manner, the inhibitory potency of any given compound can be measured in the cell-free system, in cell culture, or in tissue, and is expressed as the inhibitory dose that gives a 50% reduction of the enzyme-mediated reaction (ID50). Enzyme is tested in analogy to the method of A. Abbruzzese, H. M. Hanauske-Abel, et al., Biochem. Biophys. Acta, 1077, 159-166 (1991) and of K. Majamaa, H. M. Hanauske-Abel, et al., Eur. J. Biochem. 138, 239-245 (1984), which are hereby incorporated by reference. Table III lists the ID50 values of some of the compounds according to the invention, using purified human prolyl 4-hydroxylase and cellular human deoxyhypusyl hydroxylase as representative protein hydroxylases.
The inhibiting effect of hydroxypyridones on the collagen-hydroxylating enzyme was studied in a cell-free system.
Assay of purified human prolyl 4-hydroxylase
The native α2 β2 -tetrameric enzyme was purified to homogeneity by poly(L-proline) affinity chromatography and DEAE chromatography from the supernatant of Spodoptera frugiperda insect cells cotransfected with recombinant baculovirus transfer vectors for both the human α- and β-subunits. Enzyme activity was determined by trapping of ^14 CO2 released from 2-oxo[1-^14 C][glutarate] according to the procedure of Majamaa, et al., Eur. J. Biochem., 138:239-245 (1984), which is hereby incorporated by reference. Briefly, all incubations were run for 60 minutes at 37° C. in a final volume of 1.0 ml per test sample, containing 0.1 μg enzyme, 0.1 mg heat-denatured (Pro-Pro-Gly)10 ×9 H2 O as hydroxylatable substrate, 0.1 mM 2-oxo[1-^14 C][glutarate] adjusted to 60,000 dpm by mixing with the unlabeled 2-oxoglutarate as cosubstrate, and cofactors (1.6 mM ascorbate, 0.05 mM ferrous sulfate, 0.08 mM dithiothreitol, 2 mg bovine serum albumin, 5 μL catalase). Assays are performed with only one of the active compounds at any given time.

In data set [2] the test system is deoxyhypusyl hydroxylase activity in human B-lymphocytes. The data set can be described thus: Cellular deoxyhypusyl hydroxylase in human B-lymphocytes. Format: cell-based. The note with it: FIG. 3a. The protocol: (§1) In FIG. 3a, the effect on the human enzyme was determined by measuring in proliferating cultured B-lymphocytes the covalent incorporation of tritiated spermidine-derived label into cellular protein, after standard hydrolysis, chromatographic separation of amino acids, and expression of the results relative to uninhibited controls. In FIG. 3b, a standard chromatographic elution profile is shown as obtained from cultured human smooth muscle cells ("SMC"), grown out of coronary atherosclerotic lesions and metabolically labeled in the absence and presence of L-mimosine. […]
(§2) The cellular conversion of the precursor deoxyhypusine to the hydroxylated hypusine in cells was examined, after preincubation with the inhibitor for 60 minutes, by labeling the human cells with ^3 H-spermidine (5 μCi/ml) in 25 cm^2 flasks (1×10^6 cells/flask) for 24 hours prior to cell lysis, precipitation with 10% TCA containing 1 mM each of putrescine, spermidine, and spermine, and hydrolysis in 6 N HCl at 110° C. for 16 hours. The hydrolysate was analyzed for labeled amino acids on an amino acid analyzer by published methods (Park et al., J. Biol. Chem., 257:7217-7222 (1982), which is hereby incorporated by reference). The retention of purified hypusine and deoxyhypusine was determined from standards.

In data set [3] the test system is deoxyhypusyl hydroxylase activity in human smooth muscle cells. The data set can be described thus: Cellular deoxyhypusyl hydroxylase in human smooth muscle cells. Format: cell-based. The note with it: FIG. 3b. The protocol:
as §1, §2

Data set [4] has as its system plasminogen activator inhibitor-1 (PAI-1). The data set can be described thus: Plasminogen activator inhibitor assay, SMC supernatants. Format: cell-based. The note with it: human SMC, FIG. 6. As for the experimental part: Type III collagen biosynthesis (FIG. 6a) was assessed by a commercial radioimmunoassay using a monoclonal antibody to the N-terminal propeptide of type III procollagen. Plasminogen activator inhibitor-1 ("PAI-1") activity was measured by a standard enzymatic method. Type I collagen biosynthesis (FIG. 6b) was assessed by routine Western blot using a monoclonal antibody to the C-terminal propeptide of type I procollagen.
Supernatants of human SMC incubated with the hydroxypyridone L-mimosine under serum-free conditions (to avoid plasma-derived inhibitors) were tested for their ability to inhibit a standard amount of urokinase-type plasminogen activator (uPA) in the presence of plasminogen and the fluorometric peptide plasmin substrate d-Val-Leu-Lys-aminomethylcoumarin (Enzyme Systems, Livermore, Calif.). Inhibition of plasmin generation was compared to a standard curve of human PAI-1 (American Diagnostica, Greenwich, Conn.) to yield PAI-1 activity.

Data set [5] deals with human SMC from fibroproliferative vascular lesions. Nature of the data set: Cell proliferation: DNA synthesis (3H-thymidine) in SMC. Format: cell-based. The note with it: for reversibility of cytostatic effect upon withdrawal: corrected for cell number. As for the experimental part: The effect of the structural hydroxypyridone analog kojic acid is shown for comparison. Serum-stimulated DNA synthesis in SMC was determined by a 4-hour pulse of ^3 H-thymidine given 20 hours after treatment with L-mimosine and kojic acid (filled symbols). Identically treated, but unlabeled cells cultured in parallel, at that time point were washed and returned to fresh culture media without inhibitor for an additional 20 hours prior to otherwise identical labeling with ^3 H-thymidine (open symbols). Data is expressed as ^3 H-thymidine incorporated per cell to compensate for the reduced cell number in the wake of inhibitor treatment.
Inhibition of DNA synthesis was examined by semiautomated methods. SMC were plated at 1×10^4 cells/well in 96-well microtiter plates at least 24 hours prior to the assay. Agents were introduced into normal serum-containing growth media for 20 hours before the cells were pulsed with ^3 H-thymidine (1 μCi/ml) for 4 hours. Cells were collected with a cell harvester and the DNA-incorporated label determined by scintillation counting (Betaplate; Wallac, Inc., Gaithersburg, Md.) (n=6 per point).

The test system of another data set is cell proliferation. The note with it: Hanauske-Abel et al. 1994; cited from earlier work.
Data set [6] relates to cellular deoxyhypusyl hydroxylase. The note with it: Hanauske-Abel et al. 1994; cited from earlier work.

T1 sequence (P13674 18-534): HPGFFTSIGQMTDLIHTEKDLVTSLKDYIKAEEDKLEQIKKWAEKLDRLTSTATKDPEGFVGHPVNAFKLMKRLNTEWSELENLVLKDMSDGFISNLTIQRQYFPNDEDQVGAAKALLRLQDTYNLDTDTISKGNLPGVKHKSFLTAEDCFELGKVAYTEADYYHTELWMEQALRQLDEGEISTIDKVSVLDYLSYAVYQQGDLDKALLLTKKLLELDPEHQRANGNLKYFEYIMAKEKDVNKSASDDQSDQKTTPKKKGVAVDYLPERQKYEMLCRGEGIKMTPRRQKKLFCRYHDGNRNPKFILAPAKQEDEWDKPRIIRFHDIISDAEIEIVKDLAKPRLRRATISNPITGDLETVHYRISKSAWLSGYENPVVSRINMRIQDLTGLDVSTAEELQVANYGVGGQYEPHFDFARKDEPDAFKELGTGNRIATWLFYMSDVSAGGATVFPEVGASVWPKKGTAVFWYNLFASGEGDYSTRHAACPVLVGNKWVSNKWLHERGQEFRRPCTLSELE
T1 sequence (P07237 18-508 partner): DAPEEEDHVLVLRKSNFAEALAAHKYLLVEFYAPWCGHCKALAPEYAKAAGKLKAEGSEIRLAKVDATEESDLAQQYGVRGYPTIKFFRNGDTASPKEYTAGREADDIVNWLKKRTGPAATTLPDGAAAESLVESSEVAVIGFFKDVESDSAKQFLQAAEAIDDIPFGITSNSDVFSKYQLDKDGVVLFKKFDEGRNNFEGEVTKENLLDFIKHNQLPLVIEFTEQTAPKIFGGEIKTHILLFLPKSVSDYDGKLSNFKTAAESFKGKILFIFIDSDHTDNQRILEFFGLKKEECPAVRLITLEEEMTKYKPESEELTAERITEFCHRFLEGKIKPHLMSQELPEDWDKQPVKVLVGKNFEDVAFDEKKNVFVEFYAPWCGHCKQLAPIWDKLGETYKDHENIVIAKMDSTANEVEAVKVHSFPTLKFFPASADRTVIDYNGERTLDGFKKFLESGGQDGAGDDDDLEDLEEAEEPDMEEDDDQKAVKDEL

Turning to `N[C@@H](Cn1ccc(=O)c(O)c1)C(=O)O` [L-Mimosine], the “inhibition of purified human prolyl 4-hydroxylase” value in data set [1] (cell-free system, FIG. 1) is listed as “directly inhibit”. Further, the Prolyl 4-hydroxylase ID50 (purified) in data set [1] (purified human enzyme, inhibitory dose that gives 50% reduction of the enzyme-mediated reaction, unit assumed) was found to be 120 µM. Also, the “inhibition of deoxyhypusyl hydroxylase activity” value is on record as “inhibit deoxyhypusyl hydroxylase activity” in data set [2] and “inhibit deoxyhypusyl hydroxylase activity; also recorded: label is shifted to the unhydroxylated precursor of Hps” in data set [3]. For the same compound, in data set [4], the “secretion of plasminogen activator inhibitor-1 (PAI-1)” value is reported as “not affected; also recorded: not on release of plasminogen activator inhibitor-1”. Also, the “non-specific or toxic effects” value in data set [5] (FIGS. 6, 7) is given as “did not result from non-specific or toxic effects”. Besides, the “reversibility of cytostatic effect upon withdrawal” value in data set [5] (FIG. 7, listed as L-mimosine) is on record as “non-toxic reversibility”; in data set [5] (FIG. 7, listed as mimosine) it was “fully reversible”. The “rebound effect on DNA synthesis” value in data set [5] (following inhibitor removal and additional 24-hour recovery) was “marked rebound effect”. Also, the “inhibition of DNA synthesis” value in data set [5] (lesion-derived SMC, initial 24-hour treatment, FIG. 7) is “DNA synthesis was inhibited”. For the same compound, in data set [5] (upon removal of compound), the “reversibility of suppressive effects (collagen secretion, onset of DNA synthesis)” value is listed as “reversible”. In the data set with cell proliferation, the “inhibition of the multiplication of certain cells” value is on record as “reversible inhibitor”. For the same compound, the “inhibition of cellular deoxyhypusyl hydroxylase activity” value in data set [6] is “block the cellular deoxyhypusyl hydroxylase activity”.
